# Results published in patent publication US9982021B2, “Composition for dissolving thrombi, and a pharmaceutical composition for treating stenotic or occlusive vascular diseases which comprises the same” (INDUSTRY-ACADEMIC COOPERATION FOUNDATION, YONSEI UNIVERSITY, priority 2010, dated 2018).
# Entries after “also recorded” stand apart in the source; their conditions may differ.
# Experiments:
# [1] = tested on: mouse PRP (platelet rich plasma); assay: In vitro platelet aggregation assay (ADP, Aggregometer); assay type: cell-based; conditions: for IC50: ADP, mouse PRP, read-out: IC50 platelet aggregation inhibition
# Description: Saxatilin derivatives and ADP were administrated to mouse PRP (platelet rich plasma) and measured aggregation level using Aggregometer (CHRONO-LOG, USA) to evaluate activity of the present saxatilin derivatives (Table 1).
# [2] = tested on: FeCl3-induced carotid thrombus; assay: Intravenous thrombolysis in FeCl3-induced carotid artery thrombosis model (carotid blood flow); assay type: in vivo, ICR mice
# [3] = Mortality and bleeding after the r-saxatilin treatment; assay type: in vivo, ICR mice; conditions: 5 mg/kg bolus injection group
# Description: Total 51 animals were used for evaluation of thrombolytic effects of r-saxatilin.
# [4] = tested on: FeCl3-induced carotid thrombus; assay: Intravenous thrombolysis in FeCl3-induced carotid artery thrombosis model (carotid blood flow); assay type: in vivo, ICR mice; remark: listed apart in the source
# Protocol: 8-week-old male ICR (Institute of Cancer Research) mice (OrientBio) were used. The care and use of laboratory animals were performed according to institutionally approved protocol in accordance with the National Institutes of Health's Guide for the care and use of laboratory animals. For operative procedures, the animals were anesthetized with an inhalation of 5% isoflurane in a mixture of 70% N2O and 30% O2. Anesthesia was maintained with 2% isoflurane. During the operative procedures, body temperature was monitored continuously with a rectal probe and was maintained at 37.0±0.2° C. by means of a homeothermic blanket control unit and heating pad (Harvard Apparatus, Holliston, Mass.). To test the thrombolytic activity of r-saxatilin in vivo, FeCl3 (Sigma Aldrich, USA)-induced carotid thrombus model was utilized. A midline cervical incision was made, and the left common carotid artery was carefully dissected under a surgical microscope. An ultrasonic Doppler flow probe (Transonic MA0.7PSB) was placed around midportion of the common carotid artery (CCA). Carotid blood flow was obtained with a Transonic TS420 Blood Flow Meter (Transonic Instruments, Ithaca, N.Y.) and iWorx IX-304T data acquisition system (iWorx Systems, Inc., Dover, N.H.). The control baseline flow of the CCA was measured for 5 minutes. After the determination of the control baseline flow, the probe was removed. Oxidative vascular injury with chemical stress was induced by placing a filter paper (700×500 μm) saturated with 50% FeCl3 on the adventitial surface of the midpoint of the exposed CCA for 5 min. After removing the filter paper, the CCA was washed with normal saline and its blood flow was recorded. Thrombus formation and arterial occlusion were determined by decrease of blood flow and the complete occlusion was defined as absence of blood flow maintained for 10 minutes.
# Ten minutes after occlusion of the CCA, r-saxatilin was administered intravenously via the left femoral vein by using an infusion pump (KD Scientific Inc., USA) connected to PE-10 tubing. The carotid blood flow was continuously monitored for 2 hours from the initial time of injection.
# To evaluate dose response of r-saxatilin, the animals were randomly divided into seven groups (five mice in each group): normal saline (control group), 1, 1.75, 2.5, 3.75, 5.0, and 10.0 mg/kg of r-saxatilin administration groups. 10% of the dose was administered in bolus intravenously and the rest was infused continuously for 60 min.
# Effects of r-saxatilin for thrombolysis were assessed according to administration method. For this experiment, a total dose of 5 mg/kg of r-saxatilin was used in each animal, and the animals were divided into four groups (five mice in each group): (a) bolus injection of total dose (5 mg/kg); (b) double bolus injection of r-saxatilin with a half dose (2.5 mg/kg) of r-saxatilin at 10 min after occlusion and 60 min after the first bolus injection; (c) a half dose bolus injection (2.5 mg/kg) at 10 min after occlusion, and then continuous infusion for 60 min of the remaining dose; and (d) bolus injection of 10% of the total dose (0.5 mg/kg) at 10 min after occlusion, and then continuous infusion of the remaining dose (4.5 mg/kg) for 60 min.
# The presence and degree of recanalization were assessed by measuring blood flow. Data of blood flow at baseline and those monitored continuously for 2 hours after CCA occlusion were acquired by using iWorx Labscribe2 data acquisition software (version 2.045000). Immediately after 2 hours of blood flow monitoring, the CCA was obtained in all mice, fixed with 4% paraformaldehyde solution, and embedded in paraffin for histological examination. The paraffin blocks were consecutively sectioned in a transverse direction with 3 μm-thickness, mounted on a glass slide, and stained with hematoxylin and eosin.
# The carotid blood flow was analyzed by the area under the flow-time curves. […]
# [5] = total 5 mg/kg, bolus injection of total dose
substance,measurement,setting,value
"XL2: saxatilin derivative (deletion mutant), SEQ ID NO:7, expressed in Pichia (CKLRPGAQCAEGLCCDQCRFMKEGTICRMARGDDMDDYCNGISAGC; aritificially made peptide comprising Arg-Gly-Asp motif having thrombolytic activity)",IC50,[1],986 nM
saxatilin,restored blood flow (area under flow-time curve),[2]; 20 mg/kg,60.92±39.52%
same,restoration of blood flow and reocclusion,[2]; 40 mg/kg,restored to normal blood flow and maintained without reocclusion
same,bleeding in the cervical incision,[3],one animal suffered bleeding
same,mortality,"[3]; about 90 min after bolus, total 51 animals",one animal was died from bleeding
same,"effective recanalization (blood flow >=50% of baseline maintained >30 min), mice",[4]; 1 mg/kg,No effective recanalization
same,"blood flow, area under flow-time curve, percent of mean control baseline blood flow","[4]; 1 mg/kg i.v., 10% bolus + 60 min infusion, 2 h monitoring",2.36±0.78%
same,"effective recanalization, mice",[4]; 1.75 mg/kg,No effective recanalization
same,"blood flow, area under flow-time curve, percent of mean control baseline blood flow","[4]; 1.75 mg/kg i.v., 10% bolus + 60 min infusion",4.97±3.94%
same,"effective recanalization, mice",[4]; 2.5 mg/kg,two of five
same,time to effective recanalization,[4]; 2.5 mg/kg,32.92 ± 23.52 min
same,"blood flow, area under flow-time curve, percent of mean control baseline blood flow","[4]; 2.5 mg/kg i.v., 10% bolus + 60 min infusion",32.50±33.70%
same,"effective recanalization, mice",[4]; 3.75 mg/kg,three of five
same,time to effective recanalization,[4]; 3.75 mg/kg,21.75 ± 21.62 min
same,"effective recanalization, mice","[4]; 5 mg/kg, 10% bolus + infusion",all mice
same,time to effective recanalization,"[4]; 5 mg/kg, bolus 10% of total dose + continuous infusion",13.92 ± 6.02 min
same,time to effective recanalization,"[4]; 5 mg/kg, bolus injection of total dose",2.86 ± 0.22 min
same,time to effective recanalization,"[4]; 5 mg/kg, double bolus injection",13.44 ± 26.31 min
same,time to effective recanalization,"[4]; 5 mg/kg, half dose bolus and continuous infusion of other half",19.48 ± 25.94 min
same,"effective recanalization, mice",[4]; 10 mg/kg,all mice
same,time to effective recanalization,[4]; 10 mg/kg,19.46 ± 19.75 min
same,"blood flow, area under flow-time curve, versus baseline and 5 mg/kg","[4]; 10 mg/kg i.v., 10% bolus + 60 min infusion, listed as r-saxatilin",no significant difference; also recorded: restored nearly to the baseline level
same,reocclusion,"[4]; total 5 mg/kg, bolus 10% of total dose + continuous infusion of remaining dose",no reocclusion
same,mean percentage of blood flow compared to baseline blood flow,[4]; [5],77.01±46.11%
same,time point of abrupt reocclusion,[4]; [5],about 100 min
same,mean percentage of blood flow compared to baseline blood flow,"[4]; total 5 mg/kg, double bolus injection with a half dose (2.5 mg/kg each)",85.23±29.95%
same,time point of abrupt reocclusion,"[4]; total 5 mg/kg, double bolus injection, after the first injection",about 50 min
same,time point of abrupt reocclusion,"[4]; total 5 mg/kg, half dose bolus and continuous infusion of other half",about 110 min
same,mean percentage of blood flow compared to baseline blood flow,"[4]; total 5 mg/kg, half dose bolus then continuous infusion of remaining dose for 60 min",80.72±30.13%
same,IC50,[1],176 nM
same,treatment concentration giving similar level of aggregation inhibition,[1]; FIG. 6,approximately 0.7 μM
